Patent US7754742B2, “Imidazole carboxamides” (Eli Lilly and Company, priority 2008, dated 2010)

Columns and labels:
human mGluR2 receptor = biological target: T1, human mGluR2 receptor (Homo sapiens, UniProt Q14416); assay: Functional in vitro activity at human mGluR2 receptor (FLIPR calcium response, potentiator mode); assay type: cell-based; conditions: relative EC50; potentiation of glutamate EC10 response; cells expressing human mGluR2, rat EAAT 1 and Gα15
T1 construct: expressed in transfected cells; stably expresses human mGluR2, co-transfected with rat EAAT1 and Galpha15
T1 sequence (Q14416 19-872): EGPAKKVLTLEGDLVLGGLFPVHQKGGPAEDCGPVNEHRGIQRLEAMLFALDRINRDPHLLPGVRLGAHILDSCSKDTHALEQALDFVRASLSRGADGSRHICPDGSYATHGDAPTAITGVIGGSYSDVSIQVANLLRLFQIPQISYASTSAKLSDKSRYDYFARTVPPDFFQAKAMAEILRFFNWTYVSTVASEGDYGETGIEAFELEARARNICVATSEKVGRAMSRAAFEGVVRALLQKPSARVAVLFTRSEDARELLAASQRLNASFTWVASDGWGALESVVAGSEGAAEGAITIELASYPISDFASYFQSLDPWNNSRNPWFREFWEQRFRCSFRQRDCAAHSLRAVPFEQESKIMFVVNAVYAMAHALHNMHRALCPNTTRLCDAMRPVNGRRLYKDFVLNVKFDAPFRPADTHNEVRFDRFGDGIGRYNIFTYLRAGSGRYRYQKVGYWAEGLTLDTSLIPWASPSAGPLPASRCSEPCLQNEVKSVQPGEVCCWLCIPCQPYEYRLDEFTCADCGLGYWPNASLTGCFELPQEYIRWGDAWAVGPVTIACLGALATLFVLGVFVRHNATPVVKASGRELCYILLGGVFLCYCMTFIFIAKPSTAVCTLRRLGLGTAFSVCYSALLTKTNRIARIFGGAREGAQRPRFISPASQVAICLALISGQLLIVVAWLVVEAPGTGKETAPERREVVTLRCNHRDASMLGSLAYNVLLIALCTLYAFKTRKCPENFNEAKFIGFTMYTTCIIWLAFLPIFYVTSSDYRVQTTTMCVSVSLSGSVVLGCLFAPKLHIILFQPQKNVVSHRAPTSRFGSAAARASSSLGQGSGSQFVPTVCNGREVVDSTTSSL
Excerpt: Functional in vitro activity at human mGluR2 receptor Cell lines stably expressing the human mGluR2 receptor (see for example Desai, Burnett, Mayne, Schoepp, Mol. Pharmacol. 48, 648-657, 1995) co-transfected with the rat glutamate transporter EAAT 1 (Excitatory Amino Acid Transporter 1) and the Gα15 subunit were used for these studies. The expression of Gα15 allows this Gi-coupled receptors to couple to phospholipase C, resulting in the ability to measure receptor activation by a fluorometric calcium response assay. […]
Intracellular calcium levels were monitored before and after the addition of compounds using a Fluorometric Imaging Plate Reader (FLIPR, Molecular Devices, Union City, Calif. USA). […] The results were analyzed (GraphPad® Prism v4, Graphpad Software, LaJolla, Calif., USA) to calculate the concentrations of glutamate needed to induce the EC10 responses.
Compounds were tested in a two-addition FLIPR assay using a 10-point concentration response profile starting at a final concentration of 25 μM (agonist mode) or 12.5 μM (potentiator mode). […] After taking an initial fluorescent read of the cell plate for 5 seconds, compound was added to the cell plate (50 uL per well). […]
The maximal response was defined as that induced by ECmax (100 μM glutamate). […] Agonist effects were quantified as percent stimulation induced by compound alone relative to the maximal glutamate response. […]

Male Fischer F-344 rats = assay: Attenuation of stress-induced hyperthermia in rats; assay type: in vivo, rat; conditions: p.o., 4 hr pretreatment
Excerpt: In many anxiety disorders, hyperthermia occurs as part of the pathology and is considered a symptom of the disease. Compounds which attenuate stress-induced hyperthermia in animals are believed to be useful in treating anxiety disorders in humans.
The conventional and minimally-invasive method for analyzing stress-induced hyperthermia is by measuring body temperature, and stress-induced increases in body temperature, via rectal thermometer. Male Fischer F-344 rats (Harlan, Indianapolis, Ind., USA) weighing between 275-350 g are tested. All animals are individually-housed with food and automated water available ad libitum, and maintained on a 12 h light/dark cycle (lights on at 06:00). Animals are fasted for approximately 12-18 hours before the experiment, which is conducted during the light phase. […]
After the pretreatment period, rats are taken individually to a brightly lit adjacent room where baseline body temperatures are determined by insertion of a rectal probe lubricated with mineral oil. Body temperature is assessed using a PHYSITEMP BAT-12® Microprobe Thermometer with a PHYSITEMP RET-2® rat rectal probe (Physitemp Instruments Inc., Clifton, N.J., USA). […] Ten minutes later a second body temperature measurement is recorded (T2). […]

[1] = system: Male Holtzman Sprague-Dawley rats; assay: Positive differential reinforcement in rats (DRL-72 second schedule); assay type: in vivo, rat; conditions: reinforced responses divided by total responses, 10 mg/kg, IP, dose 0 group 0.25
Excerpt: The differential reinforcement of low rates-72 second (DRL-72) schedule has been extensively used as a screen for clinically effective antidepressant agents including imipramine, fluoxetine, paroxetine and others (Sokolowski J D, Seiden L S. 1999. The behavioral effects of sertraline, fluoxetine, and paroxetine differ on the differential-reinforcement-of-low-rate 72-second operant schedule in the rat. Psychopharm (Berl). 147(2): 153-61). […] As such, compounds which show positive result in differential reinforcement in animals are believed to be useful in treating depression in humans.
Male Holtzman Sprague-Dawley rats are water restricted (water available 20′ per day following the test session) and trained to lever press for a 4″ access to 0.025 ml of water for each correct response during daily 60 minute sessions. All testing takes place on weekdays only. After successful lever press training, rats are then required to respond under a DRL-24 second schedule, where only lever presses that are separated by 24 seconds are reinforced. Upon stable responding on a DRL-24 second schedule, rats are trained on a DRL-72 second schedule until responding stabilizes at approximately 15% efficiency. […] Response efficiency is recorded as number of reinforced responses divided by total number of responses. […]

- EC50 (human mGluR2 receptor): 22.5 nM
- melting point: 164.7 °C
SMILES: CC(C)C(=O)c1ccc(OCc2ccc(CNC(=O)c3cn(C)cn3)cc2)c(C(F)(F)F)c1O [Example 1, 1-Methyl-1H-imidazole-4-carboxylic acid 4-(3-hydroxy-4-isobutyryl-2-trifluoromethyl-phenoxymethyl)-benzylamide]
- T35 dose (dose producing a 35% reduction in stress-induced hyperthermic response relative to vehicle) (Male Fischer F-344 rats): 3.2 mg/kg
- Response Efficiency [1]: 0.56
